From US20230103631A1, “PEPTIDES AS SELECTIVE GIP RECEPTOR AGONISTS” (Sanofi, priority 2020, published 2023)
pEC50: −log10 of the molar value. *1 amine or outer side, *2 acyl side, *3 side chain or, on linkers, in order; H or OH if unused. Where a SMILES comes first, the peptide text is derived from it. Side-chain parts run from the residue outwards. [ ]: non-standard residue; d: D form. The star is where a group is joined. C18 diacid = O=C(O)CCCCCCCCCCCCCCCCC(=O)*; γGlu = O=C(O)[C@H](CCC(=O)[*:2])N[*:1]; AEEA = NCCOCCOCC(=O)O; Aib = CC(C)(N)C(=O)O; Sar = CNCC(=O)O

Key:
physchem = assay type: physicochemical; conditions: for Soluble amount: 24 h, pH 7.4; for solubility at 24 h: pH 7.4, Soluble amount
Procedure: Prior to the solubility measurement of a peptide batch, its purity was determined through UHPLC/MS. […] Therefore, solutions from solid samples were prepared in a buffer system with a concentration of 10 mg/ml compound based on the previously determined % purity: Solubility buffer system A) 100 mM phosphate buffer pH 7.4 […] Solubility buffer system C) 100 mM phosphate buffer pH 7.4, 2.7 mg/ml m-cresol UHPLC-UV was performed after 1 h of gentle agitation and storage at 5° C. over night (24 h) from the supernatant, which was obtained after 15 min of centrifugation at 2500 RCF (relative centrifugal acceleration). […] The different UV extinction coefficients of sample and reference peptide were calculated based on the different amino acid sequences and considered in the concentration calculation. The analytical method used was Analytical UHPLC Method A. Peptide samples were prepared in solubility buffer system A or C and solubility was assessed as described in Methods.

human GIP receptor = target: T1, human GIP receptor (Homo sapiens, UniProt P48546); assay: cAMP HTRF assay in human adipocytes endogenously expressing the human GIP receptor; assay type: cell-based; conditions: for pEC50: read-out: hGIPR EC50; for Emax: read-out: hGIPR Emax
T1 construct: human adipocytes endogenously expressing the human GIP receptor; host or cells: human preadipocytes (Lonza) differentiated to adipocytes
T1 sequence (P48546 22-466): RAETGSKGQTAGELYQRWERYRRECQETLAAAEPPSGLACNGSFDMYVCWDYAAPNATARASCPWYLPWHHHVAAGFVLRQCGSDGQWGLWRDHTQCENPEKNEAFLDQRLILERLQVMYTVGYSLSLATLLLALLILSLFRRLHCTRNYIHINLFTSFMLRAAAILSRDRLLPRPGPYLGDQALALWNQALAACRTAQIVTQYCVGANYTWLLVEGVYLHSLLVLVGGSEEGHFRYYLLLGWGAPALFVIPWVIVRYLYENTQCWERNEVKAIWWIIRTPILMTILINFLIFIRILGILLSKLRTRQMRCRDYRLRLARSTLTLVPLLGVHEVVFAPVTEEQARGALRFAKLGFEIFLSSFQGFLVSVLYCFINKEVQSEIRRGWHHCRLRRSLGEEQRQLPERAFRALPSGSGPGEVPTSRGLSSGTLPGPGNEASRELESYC
Procedure: For this, one vial of human preadipocytes (˜10^6 cells; Lonza) was thawed in a T-75 cell culture dish.
After 3 days, the cells were washed with PBS and 1.5 ml Trypsin, incubated for 4 min, then resuspended in medium, centrifugated for 10 min @ 300 rcf RT, resuspended again and distributed to four T-75 cell culture dishes.
After 5 days, the cells were washed with PBS and 1.5 ml Trypsin, incubated for 4 min, then resuspended in medium, centrifugated for 10 min @ 300 rcf RT, resuspended again and sawn in T-75 dishes (2.5×10^6 cells per dish) in 15 ml Differentiation medium each.
After 6 days of differentiation, 5000 cells per well were dispensed on a 96-well plate (#CLS3694 from Corning®, Sigma-Aldrich). For measurement of cAMP generation, 25 μL of test compound was added to each well of the 96-well plate, followed by incubation for 30 min at room temperature.
The cAMP generated following test compound stimulation was determined using a kit from Cisbio Corp. based on HTRF (Homogenous Time Resolved Fluorescence). The cAMP assay was performed according to manufacturer's instructions (Cisbio).
The cAMP content of cells was determined using a kit from Cisbio Corp. based on HTRF (Homogenous Time Resolved Fluorescence).

[1] = Chemical stability assessment (relative purity loss by UHPLC-UV); assay type: physicochemical
Procedure: Purity of a peptide batch was determined through UHPLC/MS prior to chemical stability measurement. The target concentration was […] pure compound. Solutions from solid samples were prepared in the following buffer systems with a concentration of ˜300 μM compound based on the previously determined % purity:
Chemical stability buffer system A) 20 mM phosphate buffer pH 7.4,
Chemical stability buffer system B) 8 mM phosphate buffer pH 7.4, 14 mg/ml propylene glycol, 5.5 mg/ml phenol
Chemical stability buffer system C) 100 mM phosphate buffer pH 7.4, 2.7 mg/ml m-cresol
Prepared solutions were filtered through […] pore size and filled into sterilized glass containers under laminar flow conditions.
Glass containers were stored for 28 days at 5 and 40° C. After this time, the samples were centrifuged for 15 min at 2500 RCF. Then 1.5 μl of the undiluted supernatant were analysed with UHPLC-UV.
The chemical stability was rated through the relative loss of purity calculated by the equation:
[(purity after 28 days at 5° C.)−(purity after 28 days at 40° C.)]/(purity after 28 days at 5° C.)]*100%
The purity is calculated as
[(peak area peptide)/(total peak area)]*100%
The analytical methods used were Analytical UHPLC Method B or C.
Peptide samples were prepared in Chemical stability buffer system A or B and stability was assessed as described in Methods.

[2] = Chemical stability buffer system A: 20 mM phosphate buffer pH 7.4

SMILES	Soluble amount (physchem)	solubility at 24 h (physchem)	pEC50 (human GIP receptor)	Emax (human GIP receptor)	Relative purity loss over 28 days at 40° C. [1, 2]	Relative purity loss over 28 days at 40° C. ([1]; Chemical stability buffer system B: 8 mM phosphate buffer pH 7.4, 14 mg/ml propylene glycol, 5.5 mg/ml phenol)
CC[C@H](C)[C@H](NC(=O)[C@H](CCCNC(=N)N)NC(=O)[C@H](CC(=O)O)NC(=O)[C@H](CCCCNC(=O)COCCOCCNC(=O)COCCOCCNC(=O)CC[C@H](NC(=O)CCCCCCCCCCCCCCCCC(=O)O)C(=O)O)NC(=O)C(C)(C)NC(=O)[C@@H](NC(=O)[C@H](CO)NC(=O)[C@H](CC(C)C)NC(=O)[C@H](CC(=O)O)NC(=O)[C@H](CO)NC(=O)[C@@H](NC(=O)[C@H](Cc1ccccc1)NC(=O)[C@@H](NC(=O)CNC(=O)[C@H](CCC(=O)O)NC(=O)C(C)(C)NC(=O)[C@@H](N)Cc1ccc(O)cc1)[C@@H](C)O)[C@@H](C)CC)[C@@H](C)CC)C(=O)N[C@@H](Cc1c[nH]cn1)C(=O)N[C@@H](CCC(N)=O)C(=O)NC(C)(C)C(=O)N[C@@H](CCC(=O)O)C(=O)N[C@@H](Cc1ccccc1)C(=O)N[C@H](C(=O)N[C@@H](CCC(=O)O)C(=O)N[C@@H](Cc1c[nH]c2ccccc12)C(=O)N[C@@H](CC(C)C)C(=O)N[C@@H](CC(C)C)C(=O)N[C@@H](C)C(=O)N[C@@H](CCC(N)=O)C(=O)NCC(=O)N1CCC[C@H]1C(=O)N[C@@H](CO)C(=O)N[C@@H](CO)C(=O)NCC(=O)N[C@@H](C)C(=O)N1CCC[C@H]1C(=O)N1CCC[C@H]1C(=O)N1CCC[C@H]1C(=O)N[C@@H](CO)C(N)=O)[C@@H](C)CC [SEQ ID NO: 4, H2N-Y-Aib-E-G-T-F-I-S-D-I-S-I-Aib-K[{AEEA}2-gGlu-C18OH]-D-R-I-H-Q-Aib-E-F-I-E-W-I-L-A-Q-G-P-S-S-G-A-P-P-P-S-NH2] (H-Y[Aib]EGTFISDLSI[Aib]K([AEEA-AEEA-γGlu-C18 diacid])DRIHQ[Aib]EFIEWLLAQGPSSGAPPPS-NH2)	>8.4 mg/mL	> 9500 µg/mL	9.30	116%	–	–
CC[C@H](C)[C@H](NC(=O)[C@H](CCCNC(=N)N)NC(=O)[C@H](CC(=O)O)NC(=O)[C@H](CCCCNC(=O)CNC(=O)CNC(=O)CNC(=O)CC[C@H](NC(=O)CCCCCCCCCCCCCCCCC(=O)O)C(=O)O)NC(=O)C(C)(C)NC(=O)[C@@H](NC(=O)[C@H](CO)NC(=O)[C@H](CC(C)C)NC(=O)[C@H](CC(=O)O)NC(=O)[C@H](CO)NC(=O)[C@@H](NC(=O)[C@H](Cc1ccccc1)NC(=O)[C@@H](NC(=O)CNC(=O)[C@H](CCC(=O)O)NC(=O)C(C)(C)NC(=O)[C@@H](N)Cc1ccc(O)cc1)[C@@H](C)O)[C@@H](C)CC)[C@@H](C)CC)C(=O)N[C@@H](Cc1c[nH]cn1)C(=O)N[C@@H](CCC(N)=O)C(=O)NC(C)(C)C(=O)N[C@@H](CCC(=O)O)C(=O)N[C@@H](Cc1ccccc1)C(=O)N[C@H](C(=O)N[C@@H](CCC(=O)O)C(=O)N[C@@H](Cc1c[nH]c2ccccc12)C(=O)N[C@@H](CC(C)C)C(=O)N[C@@H](CC(C)C)C(=O)N[C@@H](C)C(=O)N[C@@H](CCC(N)=O)C(=O)NCC(=O)N1CCC[C@H]1C(=O)N[C@@H](CO)C(=O)N[C@@H](CO)C(=O)NCC(=O)N[C@@H](C)C(=O)N1CCC[C@H]1C(=O)N1CCC[C@H]1C(=O)N1CCC[C@H]1C(=O)N[C@@H](CO)C(N)=O)[C@@H](C)CC [SEQ ID NO: 5, H2N-Y-Aib-E-G-T-F-I-S-D-I-S-I-Aib-K[{Gly}3-gGlu-C18OH]-D-R-I-H-Q-Aib-E-F-I-E-W-I-L-A-Q-G-P-S-S-G-A-P-P-P-S-NH2] (H-Y[Aib]EGTFISDLSI[Aib]K([Gly-Gly-Gly-γGlu-C18 diacid])DRIHQ[Aib]EFIEWLLAQGPSSGAPPPS-NH2)	>8.3 mg/mL	> 9300 µg/mL	9.30	137%	5.8%	–
CC[C@H](C)[C@H](NC(=O)[C@H](CCCNC(=N)N)NC(=O)[C@H](CC(=O)O)NC(=O)[C@H](CCCCNC(=O)CN(C)C(=O)CN(C)C(=O)CN(C)C(=O)CC[C@H](NC(=O)CCCCCCCCCCCCCCCCC(=O)O)C(=O)O)NC(=O)C(C)(C)NC(=O)[C@@H](NC(=O)[C@H](CO)NC(=O)[C@H](CC(C)C)NC(=O)[C@H](CC(=O)O)NC(=O)[C@H](CO)NC(=O)[C@@H](NC(=O)[C@H](Cc1ccccc1)NC(=O)[C@@H](NC(=O)CNC(=O)[C@H](CCC(=O)O)NC(=O)C(C)(C)NC(=O)[C@@H](N)Cc1ccc(O)cc1)[C@@H](C)O)[C@@H](C)CC)[C@@H](C)CC)C(=O)N[C@@H](Cc1c[nH]cn1)C(=O)N[C@@H](CCC(N)=O)C(=O)NC(C)(C)C(=O)N[C@@H](CCC(=O)O)C(=O)N[C@@H](Cc1ccccc1)C(=O)N[C@H](C(=O)N[C@@H](CCC(=O)O)C(=O)N[C@@H](Cc1c[nH]c2ccccc12)C(=O)N[C@@H](CC(C)C)C(=O)N[C@@H](CC(C)C)C(=O)N[C@@H](C)C(=O)N[C@@H](CCC(N)=O)C(=O)NCC(=O)N1CCC[C@H]1C(=O)N[C@@H](CO)C(=O)N[C@@H](CO)C(=O)NCC(=O)N[C@@H](C)C(=O)N1CCC[C@H]1C(=O)N1CCC[C@H]1C(=O)N1CCC[C@H]1C(=O)N[C@@H](CO)C(N)=O)[C@@H](C)CC [SEQ ID NO: 6, H2N-Y-Aib-E-G-T-F-I-S-D-I-S-I-Aib-K[{N-MeGly}3-gGlu-C18OH]-D-R-I-H-Q-Aib-E-F-I-E-W-I-L-A-Q-G-P-S-S-G-A-P-P-P-S-NH2] (H-Y[Aib]EGTFISDLSI[Aib]K([Sar-Sar-Sar-γGlu-C18 diacid])DRIHQ[Aib]EFIEWLLAQGPSSGAPPPS-NH2)	>8.9 mg/mL	> 10800 µg/mL	9.52	112%	5.4%	–
CC[C@H](C)[C@H](NC(=O)[C@H](Cc1ccccc1)NC(=O)[C@H](CCC(=O)O)NC(=O)[C@H](CCC(=O)O)NC(=O)[C@H](CCC(N)=O)NC(=O)[C@H](Cc1c[nH]cn1)NC(=O)[C@@H](NC(=O)[C@H](CCCNC(=N)N)NC(=O)[C@H](CC(=O)O)NC(=O)[C@H](CCCCNC(=O)COCCOCCNC(=O)COCCOCCNC(=O)CC[C@H](NC(=O)CCCCCCCCCCCCCCCCC(=O)O)C(=O)O)NC(=O)C(C)(C)NC(=O)[C@@H](NC(=O)[C@H](CO)NC(=O)[C@H](CC(C)C)NC(=O)[C@H](CC(=O)O)NC(=O)[C@H](CO)NC(=O)[C@@H](NC(=O)[C@H](Cc1ccccc1)NC(=O)[C@@H](NC(=O)CNC(=O)[C@H](CCC(=O)O)NC(=O)C(C)(C)NC(=O)[C@@H](N)Cc1ccc(O)cc1)[C@@H](C)O)[C@@H](C)CC)[C@@H](C)CC)[C@@H](C)CC)C(=O)N[C@@H](CCC(=O)O)C(=O)N[C@@H](Cc1c[nH]c2ccccc12)C(=O)N[C@@H](CC(C)C)C(=O)N[C@@H](CC(C)C)C(=O)N[C@@H](C)C(=O)N[C@@H](CCC(N)=O)C(=O)NCC(=O)N1CCC[C@H]1C(=O)N[C@@H](CO)C(=O)N[C@@H](CO)C(=O)NCC(=O)N[C@@H](C)C(=O)N1CCC[C@H]1C(=O)N1CCC[C@H]1C(=O)N1CCC[C@H]1C(=O)N[C@@H](CO)C(N)=O [SEQ ID NO: 9, H2N-Y-Aib-E-G-T-F-I-S-D-I-S-I-Aib-K[{AEEA}2-gGlu-C18OH]-DRIHQEEFIEWILAQGPSSGAPPPS-NH2] (H-Y[Aib]EGTFISDLSI[Aib]K([AEEA-AEEA-γGlu-C18 diacid])DRIHQEEFIEWLLAQGPSSGAPPPS-NH2)	–	–	–	125%	6.9%	8.2%
